In PubChem BioAssay AID1259407 (Chemical Carcinogenesis Research Information System (CCRIS), 2018) one finds mutagenic call data, which are given here for nine molecules.

For this series, the system named is CCRIS mutagenicity, Ames/micronucleus/aberration tests. Kind of series: CCRIS mutagenicity studies.
[1] abbreviates: Test System: AMES SALMONELLA TYPHIMURIUM, Strain/Indicator: TA98, Metabolic Activation: NONE, Method: PREINCUBATION
Setting [2] is: Test System: AMES SALMONELLA TYPHIMURIUM, Strain/Indicator: TA98, Metabolic Activation: RAT, LIVER, S-9, AROCLOR 1254, Method: PREINCUBATION
Setting [3] is: Test System: AMES SALMONELLA TYPHIMURIUM, Strain/Indicator: TA100, Metabolic Activation: NONE, Method: PREINCUBATION
The mark [4] stands for this setting: Test System: AMES SALMONELLA TYPHIMURIUM, Strain/Indicator: TA100, Metabolic Activation: RAT, LIVER, S-9, AROCLOR 1254, Method: PREINCUBATION
Where [5] appears, read: Test System: AMES SALMONELLA TYPHIMURIUM, Strain/Indicator: TA1535, Metabolic Activation: NONE, Method: PREINCUBATION
[6] abbreviates: Test System: AMES SALMONELLA TYPHIMURIUM, Strain/Indicator: TA1537, Metabolic Activation: NONE, Method: PREINCUBATION
The mark [7] stands for this setting: Test System: AMES SALMONELLA TYPHIMURIUM, Strain/Indicator: TA98, Metabolic Activation: NONE, Method: STANDARD PLATE.
Where [8] appears, read: Test System: AMES SALMONELLA TYPHIMURIUM, Strain/Indicator: TA100, Metabolic Activation: NONE, Method: STANDARD PLATE.
[9] abbreviates: Test System: AMES SALMONELLA TYPHIMURIUM, Strain/Indicator: TA1535, Metabolic Activation: NONE, Method: STANDARD PLATE.
Setting [10] is: Test System: AMES SALMONELLA TYPHIMURIUM, Strain/Indicator: TA1537, Metabolic Activation: NONE, Method: STANDARD PLATE.
Where [11] appears, read: Test System: AMES SALMONELLA TYPHIMURIUM, Strain/Indicator: TA98, Metabolic Activation: RAT, LIVER, S-9, AROCLOR 1254, Method: STANDARD PLATE.
[12] abbreviates: Test System: AMES SALMONELLA TYPHIMURIUM, Strain/Indicator: TA100, Metabolic Activation: RAT, LIVER, S-9, AROCLOR 1254, Method: STANDARD PLATE.

Activity calls are given as the source filed them. No rule for the calls is given here.

For the molecule `CN(C)[C@@H]1C(=O)C(C(N)=O)=C(O)[C@@]2(O)C(=O)C3=C(O)c4c(O)cccc4[C@@](C)(O)[C@H]3[C@H](O)[C@@H]12`, the mutagenic call was “inactive; negative” (End Point: AMES SALMONELLA TYPHIMURIUM, Test System: TA98, Metabolic Activation: NONE, Method: STANDARD PLATE); “inactive; negative” (End Point: AMES SALMONELLA TYPHIMURIUM, Test System: TA100, Metabolic Activation: NONE, Method: STANDARD PLATE); “inactive; negative” (End Point: IN VITRO CHROMOSOMAL ABERRATIONS, Test System: CHO CELLS, Metabolic Activation: NONE); “inactive; negative” (End Point: IN VITRO CHROMOSOMAL ABERRATIONS, Test System: CHO CELLS, Metabolic Activation: RAT, LIVER, S-9, AROCLOR 1254); “inactive; negative” (Test System: AMES SALMONELLA TYPHIMURIUM, Strain/Indicator: TA98, Metabolic Activation: HAMSTER, LIVER, S-9, AROCLOR 1254, Method: PREINCUBATION); “inactive; negative” under setting [1]. Besides, the mutagenic call by setting is: under setting [2], “inactive; negative”; (Test System: AMES SALMONELLA TYPHIMURIUM, Strain/Indicator: TA100, Metabolic Activation: HAMSTER, LIVER, S-9, AROCLOR 1254, Method: PREINCUBATION) “inactive; negative”; under setting [3], “inactive; negative”; under setting [4], “inactive; negative”; (Test System: AMES SALMONELLA TYPHIMURIUM, Strain/Indicator: TA1535, Metabolic Activation: HAMSTER, LIVER, S-9, AROCLOR 1254, Method: PREINCUBATION) “inactive; negative”; under setting [5], “inactive; negative”. Further, the mutagenic call (Test System: AMES SALMONELLA TYPHIMURIUM, Strain/Indicator: TA1535, Metabolic Activation: RAT, LIVER, S-9, AROCLOR 1254, Method: PREINCUBATION) is “inactive; negative”; the mutagenic call (Test System: AMES SALMONELLA TYPHIMURIUM, Strain/Indicator: TA1537, Metabolic Activation: HAMSTER, LIVER, S-9, AROCLOR 1254, Method: PREINCUBATION) is “inactive; negative”; the mutagenic call under setting [6] was “inactive; negative”; the mutagenic call (Test System: AMES SALMONELLA TYPHIMURIUM, Strain/Indicator: TA1537, Metabolic Activation: RAT, LIVER, S-9, AROCLOR 1254, Method: PREINCUBATION) was “inactive; negative”; the mutagenic call (Test System: MOUSE LYMPHOMA, Strain/Indicator: L5178Y (TK+/TK-), Metabolic Activation: RAT, LIVER, S-9, AROCLOR 1254, Method: SUSPENSION/PLATE) was “active; positive”.
On to `CO[C@@H]1C[C@](C)(O)Cc2cc3c(c(O)c21)C(=O)c1c(O)cc2c(c1C3=O)O[C@@H]1O[C@@]2(C)[C@H](O)[C@@H](N(C)C)[C@@H]1O`, for which the mutagenic call under setting [1] is “inactive; negative”; the mutagenic call (Test System: AMES SALMONELLA TYPHIMURIUM, Strain/Indicator: TA98, Metabolic Activation: RAT LIVER S-9, Method: PREINCUBATION) was “active; positive”; the mutagenic call under setting [3] is “inactive; negative”; the mutagenic call (Test System: AMES SALMONELLA TYPHIMURIUM, Strain/Indicator: TA100, Metabolic Activation: RAT LIVER S-9, Method: PREINCUBATION) was “active; positive”; the mutagenic call under setting [5] was “inactive; negative”; the mutagenic call (Test System: AMES SALMONELLA TYPHIMURIUM, Strain/Indicator: TA1535, Metabolic Activation: RAT LIVER S-9, Method: PREINCUBATION) is “inactive; negative”. The mutagenic call is, setting by setting: under setting [6], “inactive; negative”; (Test System: AMES SALMONELLA TYPHIMURIUM, Strain/Indicator: TA1537, Metabolic Activation: RAT LIVER S-9, Method: PREINCUBATION) “active; positive”; (Test System: E.COLI, Strain/Indicator: WP2 UVRA, Metabolic Activation: NONE, Method: PREINCUBATION) “inactive; negative”; (Test System: E.COLI, Strain/Indicator: WP2 UVRA, Metabolic Activation: RAT LIVER S-9, Method: PREINCUBATION) “inactive; negative”.
Regarding `Nc1snc2ccc(Cl)cc12`, the mutagenic call is “inactive; negative” under setting [7]; “active; positive” (Test System: AMES SALMONELLA TYPHIMURIUM, Strain/Indicator: TA98, Metabolic Activation: S-9, Method: STANDARD PLATE); “inactive; negative” under setting [8]; “active; positive” (Test System: AMES SALMONELLA TYPHIMURIUM, Strain/Indicator: TA100, Metabolic Activation: S-9, Method: STANDARD PLATE); “inactive; negative” under setting [9]; “inactive; negative” (Test System: AMES SALMONELLA TYPHIMURIUM, Strain/Indicator: TA1535, Metabolic Activation: S-9, Method: STANDARD PLATE). Besides, the mutagenic call under setting [10] is “inactive; negative” and the mutagenic call (Test System: AMES SALMONELLA TYPHIMURIUM, Strain/Indicator: TA1537, Metabolic Activation: S-9, Method: STANDARD PLATE) was “active; positive”.
Turning to `O=c1c2c(c3c(ccc4cc5c(ccc6ccccc65)[nH]c43)c1O)O2`, the mutagenic call was “active; positive” (Test System: AMES SALMONELLA TYPHIMURIUM, Strain/Indicator: TA98, Metabolic Activation: RAT, LIVER, AROCLOR 1254, NADPH GENERATING SYSTEM, Method: STANDARD PLATE); “active; positive” (Test System: AMES SALMONELLA TYPHIMURIUM, Strain/Indicator: TA100, Metabolic Activation: RAT, LIVER, AROCLOR 1254, NADPH GENERATING SYSTEM, Method: STANDARD PLATE); “active; positive” (Test System: CHINESE HAMSTER V-79, Strain/Indicator: V-79/8-AZAGUANINE, Method: STANDARD PLATE).
In the case of `Oc1ccc(ON2P(Oc3ccc(O)cc3)N=P(Oc3ccc(O)cc3)(Oc3ccc(O)cc3)N(Oc3ccc(O)cc3)P2Oc2ccc(O)cc2)cc1` (configuration not stated), the mutagenic call is, setting by setting: under setting [7], “inactive; negative”; under setting [11], “inactive; negative”; under setting [8], “inactive; negative”; under setting [12], “inactive; negative”.
Take `O.O.O=N[O-].O=N[O-].O=N[O-].O=N[O-].[K+].[K+].[Pt]`: the mutagenic call under setting [1] is “inactive; negative”, the mutagenic call under setting [2] is “inactive; negative”, the mutagenic call under setting [3] is “inactive; negative” and the mutagenic call under setting [4] is “inactive; negative”.
With `CCCCN1C2c3ccccc3-c3ccccc3C21` (configuration not stated), the mutagenic call is “active; positive” under setting [8] and “inactive; negative” (Test System: CHINESE HAMSTER V-79, Strain/Indicator: V-79/6-THIOGUANINE, Metabolic Activation: NONE, Method: STANDARD PLATE).
For `O[C@H]1C=Cc2c(ccc3cc4c(cc23)[C@H](O)[C@@H](O)c2ccccc2-4)[C@@H]1O`, the mutagenic call under setting [12] was “inactive; negative”.
For the molecule `O=C(Cl)OCC1c2ccccc2-c2ccccc21`, the mutagenic call was “inactive; negative” under setting [7]; “inactive; negative” under setting [11]; “inactive; negative” under setting [8]; “inactive; negative” under setting [12]; “inactive; negative” under setting [9]; “inactive; negative” (Test System: AMES SALMONELLA TYPHIMURIUM, Strain/Indicator: TA1535, Metabolic Activation: RAT, LIVER, S-9, AROCLOR 1254, Method: STANDARD PLATE). For the same molecule, the mutagenic call is “inactive; negative” under setting [10] and “active; positive” (Test System: AMES SALMONELLA TYPHIMURIUM, Strain/Indicator: TA1537, Metabolic Activation: RAT, LIVER, S-9, AROCLOR 1254, Method: STANDARD PLATE).
